{"source": "ChEMBL document CHEMBL4706534", "about": "“1,2,3-Triazole-containing hybrids with potential antibacterial activity against methicillin-resistant Staphylococcus aureus (MRSA)” (Eur J Med Chem, 2020)", "key": {"[1]": {"tested_on": "Staphylococcus aureus", "test": "Antibacterial activity against Methicillin-resistant Staphylococcus aureus ATCC 33591 incubated for 20 hrs by broth two-fold dilution method", "format": "functional"}, "[2]": {"tested_on": "Staphylococcus aureus", "test": "Bactericidal activity against methicillin-resistant Staphylococcus aureus ATCC 33591 measured after 20 hrs", "format": "functional"}, "[3]": {"tested_on": "Staphylococcus aureus", "test": "Antibacterial activity against Staphylococcus aureus ATCC 29213", "format": "functional, organism-based"}, "[4]": {"tested_on": "Staphylococcus aureus", "test": "Antibacterial activity against Methicillin-resistant Staphylococcus aureus ATCC 33591", "format": "functional, organism-based"}, "[5]": {"tested_on": "Staphylococcus aureus", "test": "Antibacterial activity against Staphylococcus aureus C463 incubated for 18 hrs by CLSI-based two fold agar dilution method", "format": "functional"}, "[6]": {"tested_on": "Staphylococcus aureus", "test": "Antibacterial activity against methicillin-resistant Staphylococcus aureus ATCC 43300 incubated for 18 hrs", "format": "functional"}, "[7]": {"tested_on": "Staphylococcus aureus", "test": "Resistance index, ratio of MIC for antibacterial activity against Staphylococcus aureus ATCC 43300 incubated for 18 hrs to MIC for antibacterial activity against Staphylococcus aureus ATCC 25923 incubated for 18 hrs", "format": "functional"}, "[8]": {"tested_on": "Staphylococcus aureus", "test": "Antibacterial activity against Methicillin-resistant Staphylococcus aureus ATCC 52056 incubated for 18 to 24 hrs by CLSI-based microbroth dilution method", "format": "functional", "conditions": "time 18-24 hrs"}, "[9]": {"tested_on": "Staphylococcus aureus", "test": "Antibacterial activity against Methicillin-resistant Staphylococcus aureus ATCC 510019 incubated for 18 to 24 hrs by CLSI-based microbroth dilution method", "format": "functional", "conditions": "time 18-24 hrs"}, "[10]": {"tested_on": "Staphylococcus aureus", "test": "Antibacterial activity against Methicillin-resistant Staphylococcus aureus ATCC 51599-2 incubated for 18 to 24 hrs by CLSI-based microbroth dilution method", "format": "functional", "conditions": "time 18-24 hrs"}, "[11]": {"tested_on": "Staphylococcus aureus", "test": "Antibacterial activity against Methicillin-resistant Staphylococcus aureus ATCC 52351-2 incubated for 18 to 24 hrs by CLSI-based microbroth dilution method", "format": "functional", "conditions": "time 18-24 hrs"}, "[12]": {"tested_on": "Staphylococcus aureus", "test": "Antibacterial activity against Methicillin-resistant Staphylococcus aureus ATCC 51033 incubated for 18 to 24 hrs by CLSI-based microbroth dilution method", "format": "functional", "conditions": "time 18-24 hrs"}, "[13]": {"tested_on": "Staphylococcus aureus", "test": "Antibacterial activity against Methicillin-resistant Staphylococcus aureus ATCC 43300 incubated for 18 to 24 hrs by CLSI-based microbroth dilution method", "format": "functional", "conditions": "time 18-24 hrs"}, "[14]": {"tested_on": "Staphylococcus aureus", "test": "Antibacterial activity against Methicillin-resistant Staphylococcus aureus ATCC 51345 incubated for 18 to 24 hrs by CLSI-based microbroth dilution method", "format": "functional", "conditions": "time 18-24 hrs"}, "[15]": {"tested_on": "Staphylococcus aureus", "test": "Antibacterial activity against Methicillin-resistant Staphylococcus aureus ATCC 405055 incubated for 18 to 24 hrs by CLSI-based microbroth dilution method", "format": "functional", "conditions": "time 18-24 hrs"}, "[16]": {"tested_on": "Staphylococcus aureus", "test": "Antibacterial activity against Methicillin-resistant Staphylococcus aureus ATCC 60202 incubated for 18 to 24 hrs by CLSI-based microbroth dilution method", "format": "functional", "conditions": "time 18-24 hrs"}, "[17]": {"tested_on": "Staphylococcus aureus", "test": "Antibacterial activity against Methicillin-resistant Staphylococcus aureus USA200 by CLSI-based microdilution method", "format": "functional"}, "[18]": {"tested_on": "Staphylococcus aureus", "test": "Antibacterial activity against Methicillin-resistant Staphylococcus aureus USA300 by CLSI-based microdilution method", "format": "functional"}, "[19]": {"tested_on": "Staphylococcus aureus", "test": "Antibacterial activity against Methicillin-resistant Staphylococcus aureus USA600 by CLSI-based microdilution method", "format": "functional"}, "[20]": {"tested_on": "Staphylococcus aureus", "test": "Antibacterial activity against wild type Methicillin-resistant Staphylococcus aureus by CLSI-based microdilution method", "format": "functional"}, "[21]": {"tested_on": "Staphylococcus aureus", "test": "Antibacterial activity against Methicillin-resistant Staphylococcus aureus USA100 by CLSI-based microdilution method", "format": "functional"}, "[22]": {"tested_on": "Staphylococcus aureus", "test": "Antibacterial activity against methicillin-resistant Staphylococcus aureus ATCC 33591 incubated for 18 hrs", "format": "functional"}, "[23]": {"tested_on": "Staphylococcus aureus", "test": "Antibacterial activity against methicillin-susceptible Staphylococcus aureus ATCC 25923 incubated for 18 hrs", "format": "functional"}, "[24]": {"tested_on": "Staphylococcus aureus", "test": "Potency index, ratio of linezolid MIC to compound MIC for antibacterial activity against methicillin-resistant Staphylococcus aureus ATCC 33591", "format": "functional"}, "[25]": {"tested_on": "Staphylococcus aureus", "test": "Antibacterial activity against Methicillin-resistant Staphylococcus aureus 1 incubated for 16 hrs by agar dilution method", "format": "functional"}, "[26]": {"tested_on": "Enterococcus", "test": "Antibacterial activity against Vancomycin-resistant enterococcus 1 incubated for 16 hrs by agar dilution method", "format": "functional"}, "[27]": {"tested_on": "Enterococcus", "test": "Antibacterial activity against Vancomycin-resistant enterococcus 2 incubated for 16 hrs by agar dilution method", "format": "functional"}, "[28]": {"tested_on": "Staphylococcus aureus", "test": "Antibacterial activity against Methicillin-resistant Staphylococcus aureus 2 incubated for 16 hrs by agar dilution method", "format": "functional"}, "[29]": {"tested_on": "Staphylococcus aureus", "test": "Antibacterial activity against Methicillin-resistant Staphylococcus aureus KU60", "format": "functional"}}, "data": [{"compound": "COc1cc(/C=C/c2ccc(O)cc2)cc(OC)c1", "note": "[PTEROSTILBENE]", "values": [{"measurement": "MIC", "setting": "[1]", "value": 41, "unit": "µg/mL"}, {"measurement": "MBC", "setting": "[2]", "value": 41, "unit": "µg/mL"}]}, {"compound": "COc1c(Cn2cc(-c3nnc(-c4ccccc4)o3)nn2)c(OC)c(OC)c(OC)c1OC", "values": [{"measurement": "IC50", "setting": "[3]", "value": 7, "unit": "µg/mL"}, {"measurement": "IC50", "setting": "[4]", "value": 6.4, "unit": "µg/mL"}]}, {"compound": "O=C1CC2CN(c3ccc(N4C[C@H](Cn5ccnn5)OC4=O)cc3F)CC2C1", "note": "(stereo partly drawn)", "values": [{"measurement": "MIC", "setting": "[5]", "value": 3.12, "unit": "µg/mL"}]}, {"compound": "COc1cc(/C=C/c2ccc(OCc3cn(-c4ccc(C(=O)O)cc4)nn3)cc2)cc(OC)c1", "values": [{"measurement": "MIC", "setting": "[1]", "value": 1.2, "unit": "µg/mL"}, {"measurement": "MBC", "setting": "[2]", "value": 19.5, "unit": "µg/mL"}]}, {"compound": "NC[C@H]1O[C@@H](O[C@@H](Cc2cn(CCCCCCCCCCOc3ccc(C(=O)c4ccccc4)cc3)nn2)[C@H]2O[C@@H](n3ccc(=O)[nH]c3=O)[C@H](O)[C@@H]2O)[C@H](O)[C@@H]1O.O=C(O)C(F)(F)F", "values": [{"measurement": "MIC", "setting": "[6]", "value": 8, "unit": "µg/mL"}, {"measurement": "Ratio", "setting": "[7]", "value": 0.5}]}, {"compound": "Cc1nc(C)c(COc2ccc(N3C[C@H](Cn4ccnn4)OC3=O)cc2)nc1C", "values": [{"measurement": "MIC", "setting": "[8]", "value": 4, "unit": "µg/mL"}, {"measurement": "MIC", "setting": "[9]", "value": 4, "unit": "µg/mL"}, {"measurement": "MIC", "setting": "[10]", "value": 4, "unit": "µg/mL"}, {"measurement": "MIC", "setting": "[11]", "value": 4, "unit": "µg/mL"}, {"measurement": "MIC", "setting": "[12]", "value": 4, "unit": "µg/mL"}, {"measurement": "MIC", "setting": "[13]", "value": 4, "unit": "µg/mL"}, {"measurement": "MIC", "setting": "[14]", "value": 4, "unit": "µg/mL"}, {"measurement": "MIC", "setting": "[15]", "value": 4, "unit": "µg/mL"}, {"measurement": "MIC", "setting": "[16]", "value": 4, "unit": "µg/mL"}]}, {"compound": "NC[C@@H]1O[C@H](O[C@H]2[C@@H](O)[C@H](O[C@@H]3[C@@H](O)[C@H](N)C[C@H](N)[C@H]3O[C@H]3O[C@H](CN)[C@@H](O)[C@H](O)[C@H]3N)O[C@@H]2CO)[C@H](N)[C@@H](O)[C@@H]1O", "note": "[FRAMYCETIN]", "values": [{"measurement": "MIC", "setting": "[17]", "value": "> 50", "unit": "µg/mL"}, {"measurement": "MIC", "setting": "[18]", "value": "> 50", "unit": "µg/mL"}, {"measurement": "MIC", "setting": "[19]", "value": "> 50", "unit": "µg/mL"}, {"measurement": "MIC", "setting": "[20]", "value": "> 50", "unit": "µg/mL"}, {"measurement": "MIC", "setting": "[21]", "value": "> 50", "unit": "µg/mL"}]}, {"compound": "Cc1nc(C)c(COc2ccc(N3C[C@H](Cn4ccnn4)OC3=O)cc2F)nc1C", "values": [{"measurement": "MIC", "setting": "[8]", "value": 4, "unit": "µg/mL"}, {"measurement": "MIC", "setting": "[9]", "value": 4, "unit": "µg/mL"}, {"measurement": "MIC", "setting": "[10]", "value": 4, "unit": "µg/mL"}, {"measurement": "MIC", "setting": "[11]", "value": 4, "unit": "µg/mL"}, {"measurement": "MIC", "setting": "[12]", "value": 4, "unit": "µg/mL"}, {"measurement": "MIC", "setting": "[13]", "value": 4, "unit": "µg/mL"}, {"measurement": "MIC", "setting": "[14]", "value": 4, "unit": "µg/mL"}, {"measurement": "MIC", "setting": "[15]", "value": 4, "unit": "µg/mL"}, {"measurement": "MIC", "setting": "[16]", "value": 4, "unit": "µg/mL"}]}, {"compound": "CC(=O)NC[C@H]1CN(c2ccc(-n3cc(-c4ncccn4)nn3)c(F)c2)C(=O)O1", "values": [{"measurement": "MIC", "setting": "[22]", "value": 0.5, "unit": "µg/mL"}, {"measurement": "MIC", "setting": "[23]", "value": 2, "unit": "µg/mL"}, {"measurement": "Ratio", "setting": "[24]", "value": 4}]}, {"compound": "CC(=O)NC[C@H]1CN(c2ccc(-n3cc(-c4ccccn4)nn3)c(F)c2)C(=O)O1", "values": [{"measurement": "MIC", "setting": "[22]", "value": 0.5, "unit": "µg/mL"}, {"measurement": "MIC", "setting": "[23]", "value": 2, "unit": "µg/mL"}, {"measurement": "Ratio", "setting": "[24]", "value": 4}]}, {"compound": "CC(C)C[C@H](C(=O)N[C@@H]1Cc2ccc(c(Cl)c2)Oc2cc3cc(c2O[C@@H]2O[C@H](CO)[C@@H](O)[C@H](O)[C@H]2O[C@H]2C[C@](C)(NCCCCCCCc4ccccc4)[C@H](O)[C@H](C)O2)Oc2ccc(cc2Cl)[C@@H](O)[C@@H]2NC(=O)[C@H](NC(=O)[C@@H]3NC(=O)[C@H](CC(=O)O)NC1=O)c1ccc(O)c(c1)-c1c(O)cc(O)cc1[C@H](C(=O)O)NC2=O)n1cc(COCCCCCCOCc2cn([C@H](CC(C)C)C(=O)N[C@@H]3Cc4ccc(c(Cl)c4)Oc4cc5cc(c4O[C@@H]4O[C@H](CO)[C@@H](O)[C@H](O)[C@H]4O[C@H]4C[C@](C)(NCCCCCCCc6ccccc6)[C@H](O)[C@H](C)O4)Oc4ccc(cc4Cl)[C@@H](O)[C@@H]4NC(=O)[C@H](NC(=O)[C@@H]5NC(=O)[C@H](CC(=O)O)NC3=O)c3ccc(O)c(c3)-c3c(O)cc(O)cc3[C@H](C(=O)O)NC4=O)nn2)nn1", "values": [{"measurement": "MIC", "setting": "[25]", "value": 12.5, "unit": "µg/mL"}, {"measurement": "MIC", "setting": "[26]", "value": 25, "unit": "µg/mL"}, {"measurement": "MIC", "setting": "[27]", "value": 12.5, "unit": "µg/mL"}, {"measurement": "MIC", "setting": "[28]", "value": 12.5, "unit": "µg/mL"}]}, {"compound": "O=C(C(Cl)Cl)N1CCN(c2ccc(N3C[C@H](Cn4ccnn4)OC3=O)cc2F)CC1", "values": [{"measurement": "MIC", "setting": "[29]", "value": 0.25, "unit": "µg/mL"}]}]}
